In brackets after ≈: the same amount, converted by molar mass. Where two headings read alike, the source gives them in different places.
How the values were obtained:
C. albicans 595/20 = assay: Fungistatic activity assay, broth microdilution; format: cell-based; conditions: Candida albicans, 595/20, 24 h
Method: (§1) Fungistatic activity was determined using Candida albicans ATCC 90028 from the American Type Culture Collection (ATCC, Manassas, VA, United States), and clinical isolates, C. albicans 636/20, C. albicans 595/20, and C. albicans 38 obtained from Wrocław Medical University, Wrocław, Poland.
(§2) All compounds were tested for biological activity against C. albicans ATTC 90028, C. albicans 636/20, C. albicans 595/20, and C. albicans 38 using the broth microdilution method. YPD medium (20 g glucose, 20 g Bacto Peptone, 10 g yeast extract, and 1 L of distilled water, pH 6.5) was used for the tests. The compound solutions were prepared in DMSO and diluted in YPD to obtain final concentrations in the range of 10–250 μg/mL. One hundred microlitres of each solution was pipetted into the wells of a 96-well microtiter plate. The inoculum was standardized to 0.5 McFarland standard and then diluted to obtain a final suspension with a cell density of 0.5–2.5 × 10^3 CFU/mL. The inoculum size was 100 μL. The positive control comprised DMSO added in the same concentration as the tested compounds in the inoculum, whereas the negative control consisted of DMSO diluted in the broth without the addition of inoculum. The microtiter plates were incubated in a Biosan PST-60 HL Plate Shaker-Thermostat (Riga, Latvia) at 35°C under shaking at 1,000 rpm for 24 h.

C. albicans strains = assay: Fungistatic activity assay, broth microdilution, values given over several strains; format: cell-based, Candida albicans
Method: as §1, §2

[1] = Haemolytic activity assay; format: cell-based; conditions: human red blood cells (RBCs) from healthy donors, 37°C, read-out: Percentage of haemolysis
Method: This test is based on comparison of the cytotoxicity of all tested compounds in human red blood cells (RBCs) with that in a control group. RBCs for this method were obtained from a blood center from examined and healthy donors. The compounds were tested at 10, 20, 40, 60, 80, and 100 μM concentrations. The control sample contained only ethanol in the same volume as the test samples. […] The samples were incubated at 37°C for 1 h. Then, the absorbance at 540 nm was measured using a UV–Vis spectrophotometer (Specord 40, Analytik Jena, Jena, Germany). The haemolytic activity of the compounds was determined as the ratio of the absorbance of haemoglobin in the test samples to that in completely haemolyzed cells multiplied by 100%.

RBCs membrane = assay: Fluorescence spectroscopy of the RBCs membrane (DPH probe anisotropy); format: cell-based, human; conditions: for Fluorescence anisotropy of the DPH probe: membranes of RBCs, 37 °C; for Change in DPH anisotropy / RBCs membrane fluidity (in words): RBCs, 20, 60 and 100 μM
Method: Using the DPH probe, the anisotropy values of cell membranes of RBCs modified with the test compounds were measured. RBCs for this analysis were prepared according to the method described in subsection 2.5.3. Then, the DPH probe was added to RBCs with a haematocrit of 0.2%. The final concentration of the probe in the sample was 1.3 μM. The mixture was incubated protected from light at 37°C for 30 min. Then, the compounds dissolved in ethanol were added. The compounds were tested at 20, 60, and 100 μM concentrations. Samples with compounds and control samples with alcohol of the appropriate concentration were incubated at 37°C for 1 h. Measurements in triplicate were made in quartz cuvettes using a CARY Eclipse fluorimeter (Varian, San Diego, CA, United States) at 37°C. The excitation wavelength for the DPH probe is λexc = 360 nm and the emission wavelength is λem = 426 nm.

HepG2 cells = assay: Resazurin-based viability assay; format: cell-based, human; conditions: for Effect on HepG2 proliferation / viability (in words): 24 h, 1, 50 and 200 μg/mL
Method: (§3) The human HepG2 and Caco-2 cell lines were obtained from the American Type Culture Collection (HB-8065™ and HTB-37™) and the MG-63 cell line was obtained from the European Collection of Authenticated Cell Cultures (Merck, Poznań, Poland). HepG2 cells were cultured in Dulbecco’s modified Eagle’s Medium - low glucose (Merck) supplemented with 10% foetal bovine serum (FBS) (Merck). Caco-2 cells were cultured in Dulbecco’s modified Eagle’s medium - high glucose (Merck) supplemented with 10% FBS, 2% HEPES buffer (Thermo Fisher Scientific, Warszawa, Poland), 1% Penicillin–Streptomycin-Amphotericin B Solution (100×, Merck), 1% MEM solution (100×, Thermo Fisher Scientific), and 1% Gentamycin Solution (10 mg/mL, Merck). MG-63 cells were cultured in Minimum Essential Medium (Merck) supplemented with 10% FBS. All cells were cultured in an atmosphere of 5% CO2 at 37°C.
(§4) HepG2, Caco-2, and […] were seeded in 96-well plates at 20,000 cells per well, and MG-63 cells at 10,000 cells per well, as described previously ([Marycz et al., 2012]; [Kornicka et al., 2017]). The tested compounds were dissolved in ethanol at 10 mg/mL. The concentrations were then adjusted to 1, 50, and 200 μg/mL in culture medium. Four controls were prepared: no ethanol added, and 0.01, 0.5, and 2% EtOH. The cells were treated with the compounds for 24 h. Then, cell viability was evaluated using the resazurin-based assay kit (TOX8), as described previously ([Grzesiak et al., 2011]; [Marycz et al., 2018]). The culture medium was replaced with medium containing 10% resazurin dye. The cells were incubated at 37°C in an atmosphere of 5% CO2 for 2 h. Absorbance levels were measured spectrophotometrically (Epoch) at a wavelengths of 600 nm for resazurin and 690 nm as a reference.

MG63 cells = assay: Resazurin-based viability assay; format: cell-based, human; conditions: for Effect on MG63 proliferation / viability (in words): 24 h, 1, 50 and 200 μg/mL
Method: as §3, with “HepG2” for “The human HepG2 and Caco-2 cell lines were obtained from the American Type Culture Collection (HB-8065™ and HTB-37™) and the MG-63 cell line was obtained from the European Collection of Authenticated Cell Cultures (Merck, Poznań, Poland). HepG2”
The tested compounds were dissolved in ethanol at 10 mg/mL. The concentrations were then adjusted to 1, 50, and 200 μg/mL in culture medium. Four controls were prepared: no ethanol added, and 0.01, 0.5, and 2% EtOH. The cells were treated with the compounds for 24 h. […] The culture medium was replaced with medium containing 10% resazurin dye. The cells were incubated at 37°C in an atmosphere of 5% CO2 for 2 h. Absorbance levels were measured spectrophotometrically (Epoch) at a wavelengths of 600 nm for resazurin and 690 nm as a reference.

C. albicans ATTC18804 = test system: C. albicans ATTC18804; design: method as in Kubo et al., 1993; conditions: C. albicans ATTC18804 ref Kubo et al., 1993; cited from earlier work
[2] = test system: human colon carcinoma Caco-2 cell line; conditions: ref Lea et al., 2016; Padhy et al., 2022; cited from earlier work
C. albicans ATTC 90028 = assay: Fungistatic activity assay, broth microdilution; format: cell-based; conditions: Candida albicans, ATTC90028, 24 h
Method: as §1, §2

C. albicans 38 = assay: Fungistatic activity assay, broth microdilution; format: cell-based, Candida albicans
Method: as §1, §2

Caco-2 cells = assay: Resazurin-based viability assay; format: cell-based, human; conditions: 24 h, 50 μg/mL
Method: as §3, §4

[3] = Free-radical scavenging assay (DPPH test); format: biochemical; conditions: DPPH 190 μM in methanol, 1 h, 25°C, absorbance 517 nm
Method: The antiradical activity of all compounds was tested using the 2,2-diphenyl-1-picrylhydrazyl (DPPH) test according to a previously described method ([Herald et al., 2012]; [Dudek et al., 2022]). One litre of a fresh solution of 190 μM DPPH in pure methanol was prepared in a dark glass bottle. The solution was kept protected from light and used within a week. The tested compounds and ascorbic acid as a positive control were prepared at concentrations in the range of 5–100 μg/mL. Two hundred microlitres of the test compound dilutions was added to each well of a 96-well microtiter plate. Then, […] of a 190 μM solution of DPPH in methanol was added. DPPH was also added to the negative control, in which 200 μL of methanol was added instead of the test compounds. All samples were tested at least in triplicate. The microtiter plates were incubated in the Biosan PST-60 HL thermoshaker at 25°C under shaking at 1,000 rpm for 1 h. […] EC50 values were calculated using Quest Graph™ EC50 Calculator (AAT Bioquest, Inc.).

[4] = test system: human hepatocellular carcinoma HepG2 cells; design: method as in Yoo et al., 2005; Song et al., 2014, 2020; conditions: ref Yoo et al., 2005; Song et al., 2014, 2020; cited from earlier work
[5] = cited from earlier work

| Compound | hemolysis at 1 h, 10 µM [1] | hemolysis at 1 h, 20 µM [1] | hemolysis at 1 h, 40 µM [1] | hemolysis at 1 h, 60 µM [1] | hemolysis at 1 h, 80 µM [1] | hemolysis at 1 h, 100 µM [1] | Fluorescence anisotropy of the DPH probe (RBCs membrane; 20 µM) | Fluorescence anisotropy of the DPH probe (RBCs membrane; 60 µM) | Fluorescence anisotropy of the DPH probe (RBCs membrane; 100 µM) | Effect on MG63 proliferation / viability (in words) (MG63 cells) | further results |
| --- | --- | --- | --- | --- | --- | --- | --- | --- | --- | --- | --- |
| C/C=C/c1ccc2c(c1)OCO2 [1a, isosafrole] | 2.41 ± 0.481% | 1.54 ± 0.202% | 2.18 ± 0.153% | 2.4 ± 0.446% | 2.585 ± 0.014% | 2.55 ± 0.007% | 0.262 ± 0.016 | 0.264 ± 0.030 | 0.237 ± 0.041 | promoted MGC63 proliferation | MIC50 (C. albicans 595/20): 65 µg/mL (≈ 401 µM); MIC50 (C. albicans strains; Candida albicans, read-out: MIC50 (over all tested strains)): < 100 µg/mL; Effect on HepG2 proliferation / viability (in words) (HepG2 cells): more strongly significantly suppressed the viability; MIC (C. albicans ATTC18804): 100 µg/mL (≈ 617 µM); Apoptosis in Caco-2 cell line (in words) [2]: induced apoptosis |
| CC=Cc1ccccc1 [2a, prop-1-en-1-yl benzene] |  |  |  |  |  |  | 0.262 ± 0.020 | 0.268 ± 0.023 | 0.267± 0.006 | promoted MGC63 proliferation | MIC50 (C. albicans ATTC 90028): > 250 µg/mL; MIC50 (C. albicans 38; Candida albicans, 38, 24 h): > 250 µg/mL; Effect on HepG2 proliferation / viability (in words) (HepG2 cells): more strongly significantly suppressed the viability |
| CC(O)C(=O)c1ccccc1 (centres unmarked) [2c, 2-hydroxy-1-phenylpropan-1-one] | 1.16 ± 0.027% | 1.86 ± 0.697% | 1.42 ± 0.55% | 1.74 ± 0.59% | 1.94 ± 0.154% | 2.46 ± 0.322% | 0.236 ± 0.026 | 0.240 ± 0.019 | 0.238 ± 0.002 | promoted MGC63 proliferation | MIC50 (C. albicans ATTC 90028): > 250 µg/mL; MIC50 (C. albicans 38; Candida albicans, 38, 24 h): > 250 µg/mL; Change in DPH anisotropy / RBCs membrane fluidity (in words) (RBCs membrane): a decrease in anisotropy |
| COc1ccc(C(=O)C(C)O)cc1 (centres unmarked) [3c, 2-hydroxy-1-(4-methoxyphenyl)propan-1-one] | 1.83 ± 0.355% | 1.65 ± 0.509% | 1.73 ± 0.174% | 2.33 ± 0.436% | 2.15 ± 0.161% | 1.53 ± 0.134% | 0.239 ± 0.006 | 0.249 ± 0.007 | 0.244 ± 0.003 | promoted MGC63 proliferation | MIC50 (C. albicans 38; Candida albicans, C. albicans 38, 24 h, 35°C, tested 10–250 μg/mL, read-out: MIC50): 61 µg/mL (≈ 339 µM); Change in DPH anisotropy / RBCs membrane fluidity (in words) (RBCs membrane): a decrease in anisotropy; Effect on Caco-2 proliferative activity (in words) (Caco-2 cells): induced the proliferative activity; Effect on HepG2 proliferative activity (in words) (HepG2 cells; 24 h, 50 μg/mL): induced the proliferative activity; Effect on MG63 proliferative activity / viability (in words) (MG63 cells; 24 h, 50 μg/mL): induced the proliferative activity |
| O=C1O[C@H]([C@@H](O)CO)C(O)=C1O [ascorbic acid, reference compound] |  |  |  |  |  |  |  |  |  |  | EC50 antiradical activity [3]: 15.21 µg/mL (≈ 86.4 µM) |
| C=CCc1ccc(O)c(OC)c1 [eugenol] |  |  |  |  |  |  |  |  |  |  | Effect on growth of HepG2 cells (in words) [4]: inhibited the growth; Apoptosis in Caco-2 cell line (in words) [2]: induced apoptosis |
| C=CCc1ccc2c(c1)OCO2 [safrole] |  |  |  |  |  |  |  |  |  |  | IC50 antioxidant activity ([5]; ref Eid and Hawash (2021)): 50.28 µg/mL (≈ 310 µM); Effect on growth of HepG2 cells (in words) [4]: inhibited the growth |
| isoeugenol [5a] |  |  |  |  |  |  | 0.259 ± 0.009 | 0.272 ± 0.085 | 0.256 ± 0.023 | promoted MGC63 proliferation | MIC50 (over all tested strains) (C. albicans strains; C. albicans 636/20, 595/20, 38 and ATTC90028): 52 to 88 µg/mL; MIC (C. albicans ATTC18804): 400 µg/mL; antioxidant activity ([5]; ref Siva et al. (2019)): 86% |
